# Experimental data published in PMC10247784, “Physiological activation of human and mouse bitter taste receptors by bile acids” (Communications Biology, 2023).
# Where “and” joins values, the source holds several entries; their conditions need not be identical. Identical values can stand only once.
# Target: T1, human TAS2R4 (Homo sapiens, UniProt Q9NYW5)
# T1 construct: expressed in transfected cells; host or cells: HEK293T-Gα16gust44
# T1 sequence (Q9NYW5 1-299): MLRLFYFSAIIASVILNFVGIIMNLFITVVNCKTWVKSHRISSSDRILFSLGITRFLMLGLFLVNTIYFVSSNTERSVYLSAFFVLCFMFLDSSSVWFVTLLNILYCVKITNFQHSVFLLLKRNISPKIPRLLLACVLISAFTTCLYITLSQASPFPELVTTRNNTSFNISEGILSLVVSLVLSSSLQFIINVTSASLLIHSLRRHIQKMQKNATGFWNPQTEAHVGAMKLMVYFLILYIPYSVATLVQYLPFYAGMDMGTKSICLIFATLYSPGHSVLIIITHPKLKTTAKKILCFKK
# Assay: Calcium imaging assay (FLIPR), HEK293T-Gα16gust44 cells transfected with human TAS2R4
# Type: cell-based
# Procedure: This set of bile acids was chosen because of their commercial availability in high purities, their diversity within the class of bile acids and their previous detection and quantitation in human blood. Stock solutions were prepared in DMSO.
# As basal growth medium for the HEK293T-Gα16gust44 cell line[17],[59] served Dulbecco’s modified eagle medium (DMEM) (Thermo Fisher Scientific, Darmstadt, Germany) supplemented with 10 % fetal bovine serum (Sigma-Aldrich, Steinheim, Germany), 2 mM L-glutamine (Sigma-Aldrich, Steinheim, Germany), 100 units/ml penicillin (Sigma Aldrich, Steinheim, Germany) and 100 µg/ml streptomycin (Sigma Aldrich, Steinheim, Germany). Growth conditions were 37 °C, 5 % CO2 and saturated air-humidity[60].
# HEK293T-Gα16gust44 cells were seeded on poly-D-lysine (10 µg/ml) coated 96-well plates to reach a confluence of 40-60 % the next day. For transient transfection 150 ng of plasmid DNA containing the receptor of interest and 0.3 µl lipofectamine 2000 (Thermo Fisher Scientific, Darmstadt, Germany) per well were used and transfection took place according to the manual of lipofectamine 2000. […] The empty vector DNA (mock) was transfected as negative control[14],[41].
# Cells were loaded using the calcium-sensitive fluorescent dye Fluo-4-AM (Abcam, Cambridge, Great Britain) in the presence of 2.5 mM probenecid (Sigma-Aldrich, Steinheim, Germany) the day after transfection[13],[41]. 1 h after loading, cells were washed with C1 buffer using a BioTek Cell Washer, incubated in the dark for half an hour and washed again. For automated agonist application and measurement of fluorescence changes, a FLIPR^TETRA device (Molecular Devices, San José, United States) was used. Viability of cells was tested by application of 100 nM Somatostatin 14 (Bachem, Bubendorf, Switzerland)[42].
# Measured data were negative control corrected by subtracting the signal of the mock-transfected cells and exported to Microsoft Excel using the FLIPR software ScreenWorks 4.2. In Microsoft Excel software, standardization of maximum fluorescence intensities to the basal fluorescence and normalization to the buffer-only control was done to calculate the relative fluorescence changes (ΔF/F).
# Initial screening experiments performed in duplicate wells were confirmed by at least one replication and representative traces were selected for display. All dose-response relationships were determined by three independent experiments (biological replicates) performed in duplicates (technical replicates). Threshold concentrations, defined as lowest substance concentrations leading to statistically significant elevated fluorescence changes in receptor-transfected cells compared with empty vector-transfected cells, were determined using SigmaPlot with Student’s t-test to evaluate statistical significance (p < 0.01).
smiles,measurement,setting,value
"C[C@H](CCC(=O)O)[C@H]1CC[C@H]2[C@@H]3CC[C@@H]4C[C@H](O)CC[C@]4(C)[C@H]3C[C@H](O)[C@]12C [Deoxycholic Acid, deoxycholic acid]",Efficacy = maximal amplitude (ΔF/F),"TAS2R4, bile acids, mean",0.08533
same,"Efficacy (maximal amplitude ΔF/F), individual data points","TAS2R4, bile acids, single replicates, listed as DCA",0.07628 and 0.1105 and 0.06917
same,"RLU, fluorescence trace",Time (s) 0,0 RLU
same,"RLU, fluorescence trace",Time (s) 2,-24.43 RLU
same,"RLU, fluorescence trace",Time (s) 4,-23.5542 RLU
same,"RLU, fluorescence trace",Time (s) 6,-22.8766 RLU
same,"RLU, fluorescence trace",Time (s) 8,-1.905 RLU
same,"RLU, fluorescence trace",Time (s) 12,-21.8648 RLU
same,"RLU, fluorescence trace",Time (s) 14,-18.1346 RLU
same,"RLU, fluorescence trace",Time (s) 16,-52.8215 RLU
same,"RLU, fluorescence trace",Time (s) 18,-24.2064 RLU
same,"RLU, fluorescence trace","Time (s) 18.766 (TCA, TLCA: 18.782)",-22.8202 RLU
same,"RLU, fluorescence trace","Time (s) 20.781 (TCA, TLCA: 20.782)",-95.6069 RLU
same,"RLU, fluorescence trace","Time (s) 22.781 (TCA, TLCA: 22.782)",-71.6568 RLU
same,"RLU, fluorescence trace","Time (s) 24.781 (TCA, TLCA: 24.782)",-40.8819 RLU
same,"RLU, fluorescence trace","Time (s) 26.781 (TCA, TLCA: 26.782)",-9.811 RLU
same,"RLU, fluorescence trace","Time (s) 28.781 (TCA, TLCA: 28.782)",38.1772 RLU
same,"RLU, fluorescence trace","Time (s) 30.781 (TCA, TLCA: 30.782)",89.531 RLU
same,"RLU, fluorescence trace","Time (s) 32.781 (TCA, TLCA: 32.782)",109 RLU
same,"RLU, fluorescence trace","Time (s) 34.781 (TCA, TLCA: 34.782)",155.799 RLU
same,"RLU, fluorescence trace","Time (s) 36.781 (TCA, TLCA: 36.782)",198.766 RLU
same,"RLU, fluorescence trace","Time (s) 38.781 (TCA, TLCA: 38.782)",215 RLU
same,"RLU, fluorescence trace","Time (s) 40.781 (TCA, TLCA: 40.782)",245.601 RLU
same,"RLU, fluorescence trace","Time (s) 42.781 (TCA, TLCA: 42.782)",273.234 RLU
same,"RLU, fluorescence trace","Time (s) 44.781 (TCA, TLCA: 44.782)",289.793 RLU
same,"RLU, fluorescence trace","Time (s) 46.781 (TCA, TLCA: 46.782)",293.169 RLU
same,"RLU, fluorescence trace","Time (s) 48.781 (TCA, TLCA: 48.782)",315.257 RLU
same,"RLU, fluorescence trace","Time (s) 50.781 (TCA, TLCA: 50.782)",327.06 RLU
same,"RLU, fluorescence trace","Time (s) 52.781 (TCA, TLCA: 52.782)",336.965 RLU
same,"RLU, fluorescence trace","Time (s) 54.781 (TCA, TLCA: 54.782)",356.774 RLU
same,"RLU, fluorescence trace","Time (s) 56.781 (TCA, TLCA: 56.782)",358.021 RLU
same,"RLU, fluorescence trace","Time (s) 58.781 (TCA, TLCA: 58.782)",377.086 RLU
same,"RLU, fluorescence trace","Time (s) 60.781 (TCA, TLCA: 60.782)",371.413 RLU
same,"RLU, fluorescence trace","Time (s) 62.781 (TCA, TLCA: 62.782)",354.175 RLU
same,"RLU, fluorescence trace","Time (s) 64.781 (TCA, TLCA: 64.782)",367.028 RLU
same,"RLU, fluorescence trace","Time (s) 66.781 (TCA, TLCA: 66.782)",369.018 RLU
same,"RLU, fluorescence trace","Time (s) 68.781 (TCA, TLCA: 68.782)",401.767 RLU
same,"RLU, fluorescence trace","Time (s) 70.781 (TCA, TLCA: 70.782)",369.499 RLU
same,"RLU, fluorescence trace","Time (s) 72.781 (TCA, TLCA: 72.782)",371.417 RLU
same,"RLU, fluorescence trace","Time (s) 74.781 (TCA, TLCA: 74.782)",395.575 RLU
same,"RLU, fluorescence trace","Time (s) 76.781 (TCA, TLCA: 76.782)",372.212 RLU
same,"RLU, fluorescence trace","Time (s) 78.781 (TCA, TLCA: 78.782)",381.123 RLU
same,"RLU, fluorescence trace","Time (s) 80.781 (TCA, TLCA: 80.782)",377.573 RLU
same,"RLU, fluorescence trace","Time (s) 82.781 (TCA, TLCA: 82.782)",366.542 RLU
same,"RLU, fluorescence trace","Time (s) 84.781 (TCA, TLCA: 84.782)",344.412 RLU
same,"RLU, fluorescence trace","Time (s) 86.781 (TCA, TLCA: 86.782)",365.264 RLU
same,"RLU, fluorescence trace","Time (s) 88.781 (TCA, TLCA: 88.782)",345.388 RLU
same,"RLU, fluorescence trace","Time (s) 90.781 (TCA, TLCA: 90.782)",349.245 RLU
same,"RLU, fluorescence trace","Time (s) 92.781 (TCA, TLCA: 92.782)",348.005 RLU
same,"RLU, fluorescence trace","Time (s) 94.781 (TCA, TLCA: 94.782)",360.114 RLU
same,"RLU, fluorescence trace","Time (s) 96.781 (TCA, TLCA: 96.782)",353.364 RLU
same,"RLU, fluorescence trace","Time (s) 98.781 (TCA, TLCA: 98.782)",356.212 RLU
same,"RLU, fluorescence trace","Time (s) 100.781 (TCA, TLCA: 100.782)",338.006 RLU
same,"RLU, fluorescence trace","Time (s) 102.781 (TCA, TLCA: 102.782)",349.375 RLU
same,"RLU, fluorescence trace","Time (s) 104.781 (TCA, TLCA: 104.782)",357.725 RLU
same,"RLU, fluorescence trace","Time (s) 106.781 (TCA, TLCA: 106.782)",339.949 RLU
same,"RLU, fluorescence trace","Time (s) 108.781 (TCA, TLCA: 108.782)",333.434 RLU
same,"RLU, fluorescence trace","Time (s) 110.781 (TCA, TLCA: 110.782)",336.947 RLU
same,"RLU, fluorescence trace","Time (s) 112.781 (TCA, TLCA: 112.782)",335.627 RLU
same,"RLU, fluorescence trace","Time (s) 114.781 (TCA, TLCA: 114.782)",349.641 RLU
same,"RLU, fluorescence trace","Time (s) 116.781 (TCA, TLCA: 116.782)",340.242 RLU
same,"RLU, fluorescence trace","Time (s) 118.781 (TCA, TLCA: 118.782)",328.36 RLU
same,"RLU, fluorescence trace","Time (s) 120.781 (TCA, TLCA: 120.782)",338.913 RLU
same,"RLU, fluorescence trace","Time (s) 122.781 (TCA, TLCA: 122.782)",364.894 RLU
same,"RLU, fluorescence trace","Time (s) 124.781 (TCA, TLCA: 124.782)",333.589 RLU
same,"RLU, fluorescence trace","Time (s) 126.781 (TCA, TLCA: 126.782)",335.132 RLU
same,"RLU, fluorescence trace","Time (s) 128.781 (TCA, TLCA: 128.782)",319.908 RLU
same,"RLU, fluorescence trace","Time (s) 130.781 (TCA, TLCA: 130.782)",356.29 RLU
same,"RLU, fluorescence trace","Time (s) 132.781 (TCA, TLCA: 132.782)",335.417 RLU
same,"RLU, fluorescence trace","Time (s) 134.781 (TCA, TLCA: 134.782)",327.442 RLU
same,"RLU, fluorescence trace","Time (s) 136.781 (TCA, TLCA: 136.782)",323.134 RLU
same,"RLU, fluorescence trace",Time (s) 137.547,342.47 RLU
same,"RLU, fluorescence trace",Time (s) 143.547,333.389 RLU
same,"RLU, fluorescence trace",Time (s) 149.547,328.288 RLU
same,"RLU, fluorescence trace",Time (s) 155.547,355.055 RLU
same,"RLU, fluorescence trace",Time (s) 161.547,338.156 RLU
same,"RLU, fluorescence trace",Time (s) 167.547,335.87 RLU
same,"RLU, fluorescence trace",Time (s) 173.547,351.387 RLU
same,"RLU, fluorescence trace",Time (s) 179.547,368.586 RLU
same,"RLU, fluorescence trace",Time (s) 185.547,363.986 RLU
same,"RLU, fluorescence trace",Time (s) 191.547,372.236 RLU
same,"RLU, fluorescence trace",Time (s) 197.547,331.461 RLU
same,"RLU, fluorescence trace",Time (s) 203.547,345.855 RLU
same,"RLU, fluorescence trace",Time (s) 209.547,348.008 RLU
same,"RLU, fluorescence trace",Time (s) 215.547,318.834 RLU
same,"RLU, fluorescence trace",Time (s) 221.547,327.885 RLU
same,"RLU, fluorescence trace",Time (s) 227.547,345.298 RLU
same,"RLU, fluorescence trace",Time (s) 233.547,352.884 RLU
same,"RLU, fluorescence trace",Time (s) 239.547,389.33 RLU
same,"RLU, fluorescence trace",Time (s) 245.547,399.649 RLU
same,"RLU, fluorescence trace",Time (s) 293.547,411.409 RLU
same,"RLU, fluorescence trace",Time (s) 299.547,406.435 RLU
same,"RLU, fluorescence trace",Time (s) 305.547,380.1 RLU
same,"RLU, fluorescence trace",Time (s) 311.547,396.715 RLU
same,"RLU, fluorescence trace",Time (s) 317.547,351.706 RLU
same,"RLU, fluorescence trace",Time (s) 323.547,391.589 RLU
same,"RLU, fluorescence trace",Time (s) 329.547,362.796 RLU
same,"RLU, fluorescence trace",Time (s) 335.547,360.917 RLU
same,"RLU, fluorescence trace",Time (s) 341.547,350.479 RLU
same,"RLU, fluorescence trace",Time (s) 347.547,349.654 RLU
same,"RLU, fluorescence trace",Time (s) 353.547,326.897 RLU
same,"RLU, fluorescence trace",Time (s) 359.547,343.746 RLU
same,Activation threshold concentration TAS2R4,lowest concentration with significantly increased fluorescence vs empty vector (p < 0.01),3 µM
